The source of these data is US20080125432A1 (Devgen NV, priority 2004, published 2008).

The target of the assay is T1, Ito (Kv4.3) (Homo sapiens, UniProt Q9UK17).
T1 construct: endogenous in cells; host or cells: freshly isolated human atrial myocytes
T1 sequence (Q9UK17 1-655): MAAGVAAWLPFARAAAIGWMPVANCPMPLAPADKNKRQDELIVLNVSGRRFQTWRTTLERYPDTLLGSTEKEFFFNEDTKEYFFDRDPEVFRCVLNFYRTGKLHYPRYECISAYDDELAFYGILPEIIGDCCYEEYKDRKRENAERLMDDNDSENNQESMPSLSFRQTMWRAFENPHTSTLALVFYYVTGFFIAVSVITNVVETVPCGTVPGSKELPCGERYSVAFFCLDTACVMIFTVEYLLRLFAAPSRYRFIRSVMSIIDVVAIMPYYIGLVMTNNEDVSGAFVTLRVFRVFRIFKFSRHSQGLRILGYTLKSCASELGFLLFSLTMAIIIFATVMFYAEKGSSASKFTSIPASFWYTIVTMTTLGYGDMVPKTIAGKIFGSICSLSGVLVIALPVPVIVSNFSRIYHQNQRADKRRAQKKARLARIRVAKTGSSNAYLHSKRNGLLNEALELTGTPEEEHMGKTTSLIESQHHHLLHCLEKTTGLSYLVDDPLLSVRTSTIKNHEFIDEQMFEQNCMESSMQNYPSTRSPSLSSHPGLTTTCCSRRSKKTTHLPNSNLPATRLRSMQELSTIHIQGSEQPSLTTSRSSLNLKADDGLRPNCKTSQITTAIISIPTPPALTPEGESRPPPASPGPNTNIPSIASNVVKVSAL
T1 sequence (Q9NS61 1-270 partner): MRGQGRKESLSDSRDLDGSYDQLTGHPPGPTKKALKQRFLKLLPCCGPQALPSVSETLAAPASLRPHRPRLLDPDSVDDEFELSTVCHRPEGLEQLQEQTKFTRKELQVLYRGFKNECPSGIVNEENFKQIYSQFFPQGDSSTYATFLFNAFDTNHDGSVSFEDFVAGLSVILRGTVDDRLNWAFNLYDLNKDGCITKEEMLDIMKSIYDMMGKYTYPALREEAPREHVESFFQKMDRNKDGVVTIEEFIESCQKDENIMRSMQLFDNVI
As to the kind of experiment: Whole-cell patch clamp in human atrial myocytes: Ito. The assay is classed as cell-based. Here is the method:
The blocking profile of the compounds of the invention is determined on the following channels of the human atrial myocytes: INa, Ito, Isus and IK1 channel currents.
Human atrial myocytes: Myocytes were prepared from specimens with grossly normal anatomical aspect, excised from hearts of patients with normal P-wave electrocardiogram, undergoing bypass surgery. Human atrial sample were obtained following approval by the ethical committee. […]
Experiments were performed at room temperature (20-25° C.) for INa and at 32-34° C. for Ito, Isus, IK1. Currents were measured using the whole-cell variant of the patch clamp method. […]
After rupture of the cell membrane to enter the whole-cell mode, current amplitude and kinetics were allowed to stabilize for 3-7 min before initiating the experimental procedure. K^+ currents recorded from human atrial myocytes were elicited by a 500 ms pulse to +60 mV from a holding potential of −50 mV for Ito and Isus. Ito was measured as a peak current amplitude whereas Isus as a current present at the end of the 500 ms voltage pulse. In addition, the area under the curve, before and after compound, were measured over the course of the pulse period. […]

SMILES strings stand for the structures.

As for `COc1ccccc1Nc1nc(C)c(C(=O)N[C@H]2CCC[C@@H]2OCc2ccccc2)s1` [Compound 68, 2-(2-methoxy-phenylamino)-4-methyl-thiazole-5-carboxylic acid (1S,2S)-2-(benzyloxycyclopent-1-yl) amide], the “Block at 10 μM in %: Ito (Kv4.3)” value (10 μM, n = 3 cells) was determined as 82.0 ± 3.6%. Further, the half-inhibitory concentration (IC50) (dose-response analysis, read-out: IC50 on the ITO current) stood at 800 nM.
